Experimental data from US20210059997A1, “PROPHYLACTIC AGENT AND/OR THERAPEUTIC AGENT FOR CATARACT, MEDICINAL COMPOSITION FOR PREVENTING AND/OR TREATING CATARACT, USE OF PPAR ACTIVATOR FOR PRODUCING SAME, AND EYEDROPS” (UNIVERSITY OF FUKUI, priority 2017, published 2021).

Experiments:
Set-up in all cases: species or system SD rat
[1] = system: isolated crystalline lenses; assay: Quantitative ex vivo study: ex-vivo diabetic cataract models using galactose-containing media, percentage of opacity by image analysis; conditions: for Percentage of opacity of crystalline lens, Day 6: Day 6 = 3 days after restart of culture with 30 mM galactose and PPAR activator; for Percentage of opacity of crystalline lens, Day 3: Day 3 = 3 days in 30 mM galactose medium, before addition of PPAR activator; for effect on the percentage of opacity of the crystalline lens (conclusion from Table 1): ex vivo, low concentration
Method: In Example 2, effects of each agent were tested with use of ex-vivo diabetic cataract models using galactose-containing media, in a similar manner to Example 1.
(§1) The crystalline lenses were isolated from the right and left eyeballs of a 6-week-old SD rat (available from Sankyo Labo Service Corporation).
(§2) The isolated crystalline lenses were cultured with use of a medium obtained by adding 30 mM of galactose to an M199 medium (available from SIGMA). After that, the crystalline lenses were cultured with use of a medium obtained by adding 30 mM of galactose and a PPAR activator to an M199 medium.
(§3) Specific points in time at which observation was carried out are as follows. Note that the crystalline lenses were cultured with use of an incubator, the internal temperature of which was maintained at 37° C.
First, 3 days after the start of the culture of the crystalline lenses using the medium obtained by adding 30 mM of galactose to an M199 medium (available from SIGMA), the crystalline lenses were removed from the medium and observed by microscopy under a microscope SZX12 (available from Olympas).
After the microscopy, a PPAR activator was added to the medium, and the culture of the crystalline lenses was restarted. 3 days after the restart of the culture, the crystalline lenses were removed from the medium and observed again by microscopy under the microscope SZX12 (available from Olympas). Note that, for the purpose of clarifying the effects of the PPAR activator, control crystalline lenses were cultured again using a medium having no PPAR activators added thereto.
The images obtained by the microscopy were imported into image processing software (Image J), and the number of pixels was analyzed. In this way, the total area of the crystalline lens and the area of the opaque area were calculated. The percentage of opacity of the crystalline lens was calculated using the following equation.
Percentage of opacity of crystalline lens (%)=100×{(area of opaque area of crystalline lens)/(total area of crystalline lens)}

[2] = system: isolated crystalline lenses; assay: Ex vivo study: ex-vivo diabetic cataract models using galactose-containing media (microscopy); conditions: 800 μM PPAR activator added after 3 days in 30 mM galactose M199 medium; observed 3 days after restart of culture (Day 6)
Method: In Example 1, effects of each agent were tested with use of ex-vivo diabetic cataract models using galactose-containing media.
as §1
as §2, with “and 800 μM of” for “and”, “activator (specifically, bezafibrate or fenofibrate)” for “activator”
as §3
First, 3 days after the start of the culture of the crystalline lenses using the medium obtained by adding 30 mM of galactose to an M199 medium (available from SIGMA), the crystalline lenses were removed from the medium and observed by microscopy under a SZX12 microscope (available from Olympas).
After the microscopy, a PPAR activator was added to the medium, and the culture of the crystalline lenses was restarted. […]

[3] = system: in-vivo diabetic cataract models raised on galactose feed; assay: In vivo study: in-vivo diabetic cataract models raised on galactose feed, instillation to the eye; conditions: for Percentage of opacity of crystalline lens, Left eye: instillation to left eye four times a day for 1 week, feed containing 25% galactose; for effect on the area of the opaque area of the crystalline lens in vivo (conclusion from Table 2): left eye versus DMSO right eye
Method: In Example 3, effects of each agent were tested with use of in-vivo diabetic cataract models raised on galactose feed.
For the purpose of inducing cataract, a 3-week-old SD rat (available from Sankyo Labo Service Corporation) was raised for 1 week on feed containing 25% galactose. Concurrently, during the feeding period, ophthalmic agents were administered by instillation to both eyes of the rat every day (four times a day). The components of the ophthalmic agents were as follows: dimethyl sulfoxide (DMSO; administered as a control) for the right eye; and DMSO containing a PPAR activator for the left eye. On the last day of the feeding period, the crystalline lenses were isolated from the right and left eyes of the rat, and observed by microscopy.
The type of PPAR activator administered to the left eye and its concentration in Example 3 are as follows.
The total area of the crystalline lens, the area of the opaque area of the crystalline lens, and the percentage of opacity of the crystalline lens were calculated in the same manner as described in Example 2.

| Structure (SMILES) | Percentage of opacity of crystalline lens, Left eye ([3]; 200 mM in DMSO) | effect on the area of the opaque area of the crystalline lens in vivo (conclusion from Table 2) ([3]; 200 mM in DMSO) | Percentage of opacity of crystalline lens, Day 6 ([1]; 25 μM) | Percentage of opacity of crystalline lens, Day 6 ([1]; 100 μM) | effect on the percentage of opacity of the crystalline lens (conclusion from Table 1) [1] | Percentage of opacity of crystalline lens, Day 3 ([1]; lens later given 25 μM) | Percentage of opacity of crystalline lens, Day 3 ([1]; lens later given 100 μM) | other results |
| --- | --- | --- | --- | --- | --- | --- | --- | --- |
| CC(C)(Oc1ccc(CCNC(=O)c2ccc(Cl)cc2)cc1)C(=O)O [Bezafibrate, 2-[4-[2-[(4-chlorobenzoyl)amino]ethyl]phenoxy]-2-methylpropanoic acid] | – | – | – | – | – | – | – | Percentage of opacity of crystalline lens, Day 6 ([1]; 200 μM): 28.0%; Percentage of opacity of crystalline lens, Day 3 ([1]; lens later given 200 μM): 27.1%; effect on opacity of the cortex of the crystalline lens (microscopy) [2]: have the effect of therapeutic treatment of cataract after its development |
| CC(C)(Oc1ccc(C2CC2(Cl)Cl)cc1)C(=O)O (stereo not drawn) [Ciprofibrate, 2-[4-(2,2-dichlorocyclopropyl)phenoxy]-2-methylpropanoic acid] | 30.2% | have the effect of reducing the area of the opaque area of the crystalline lens in vivo | 15.7% | 2.0% | have the effect of reducing the percentage of opacity of the crystalline lens even when used at low concentration | 17.5% | 16.7% | – |
| CCOC(=O)C(C)(C)Oc1ccc(Cl)cc1 [Clofibrate, ethyl 2-(4-chlorophenoxy)-2-methylpropanoate] | – | – | 27.3% | 5.7% | – | 9.7% | 7.6% | – |
| CC(C)(Oc1ccc(Cl)cc1)C(=O)OCCOC(=O)c1cccnc1 [Etofibrate, 2-[2-(4-chlorophenoxy)-2-methylpropanoyl]oxyethyl pyridine-3-carboxylate] | – | – | 25.2% | 3.2% | – | 16.8% | 11.4% | Percentage of opacity of crystalline lens, Left eye ([3]; 140 mM in DMSO): 42.8% |
| CC(C)OC(=O)C(C)(C)Oc1ccc(C(=O)c2ccc(Cl)cc2)cc1 [Fenofibrate, propan-2-yl 2-[4-(4-chlorobenzoyl)phenoxy]-2-methylpropanoate] | – | – | – | – | – | – | – | effect on opacity of the cortex of the crystalline lens (microscopy) [2]: have the effect of therapeutic treatment of cataract after its development |
| Cc1ccc(C)c(OCCCC(C)(C)C(=O)O)c1 [Gemfibrozil, 5-(2,5-dimethylphenoxy)-2,2-dimethylpentanoicacid] | 40.4% | have the effect of reducing the area of the opaque area of the crystalline lens in vivo | 8.2% | – | have the effect of reducing the percentage of opacity of the crystalline lens even when used at low concentration | 13.8% | – | Percentage of opacity of crystalline lens, Day 6 ([1]; 0.8 μM): 10.3%; Percentage of opacity of crystalline lens, Day 3 ([1]; lens later given 0.8 μM): 15.4% |
| CCc1ccc(CCOc2ccc(CC3SC(=O)NC3=O)cc2)nc1 (stereo not drawn) [Pioglitazone, 5-[[4-[2-(5-ethylpyridin-2-yl)ethoxy]phenyl]methyl]-1,3-thiazolidine-2,4-dione] | 44.2% | did not show the effect of reducing the area of the opaque area of the crystalline lens in vivo | – | – | – | – | – | – |
| CN(CCOc1ccc(CC2SC(=O)NC2=O)cc1)c1ccccn1 (stereo not drawn) [Rosiglitazone, 5-[[4-[2-[methyl(pyridin-2-yl)amino]ethoxy]phenyl]methyl]-1,3-thiazolidine-2,4-dione] | 30.6% | have the effect of reducing the area of the opaque area of the crystalline lens in vivo | – | – | have the effect of reducing the percentage of opacity of the crystalline lens even when used at low concentration | – | – | Percentage of opacity of crystalline lens, Day 6 ([1]; 20 μM): 20.9%; Percentage of opacity of crystalline lens, Day 6 ([1]; 80 μM): 2.2%; Percentage of opacity of crystalline lens, Day 3 ([1]; lens later given 20 μM): 22.8%; Percentage of opacity of crystalline lens, Day 3 ([1]; lens later given 80 μM): 15.6% |
